Test results: patent US11865105B2, “Sphingosine pathway modulating compounds for the treatment of cancers” (Enzo Biochem, Inc., priority 2017, dated 2024)

Experiments:
Huh7 cells = assay: Apoptosis/necrosis assay (flow cytometry, GFP Certified Apoptosis/Necrosis detection kit); assay type: cell-based, human; settings: 24 hours, SK1-I 10, 20, 40 μM, ozanimod 5, 10, 20 μM, ABC294640 10, 20, 40 μM
Description: (§1) Apoptosis/necrosis assays evaluating the effect of different concentrations of each of ozanimod, ABC294640 and SK1-I on the four human hepatocellular carcinoma cell lines, Hep G2, Hep 3B, Huh 7 and PLC-PRF5 were also performed.
(§2) The protocol used for the apoptosis assays was: • Plated cells in 6-well plates and incubated at 37° C. overnight. • Prepared concentrations of test compound and control compound DMSO in media. • Ozanimod: 5 μM, 10 μM, and 20 μM. • ABC294640: 10 μM, 20 μM, and 40 μM. • SK1-I: 10 μM, 20 μM, and 40 μM. • Control: 0.2% DMSO. • Aspirated the medium from the 6-well plates and added test compound concentrations in media or 0.2% DMSO control in media. Incubated at 37° C. for 24 hours. • Collected and processed the cells following the flow cytometry protocol of the GFP Certified® Apoptosis/Necrosis detection kit from Enzo Life Sciences, Inc. (product no. ENZ-51002; Farmingdale, NY, USA).
(§3) FIGS. 5-16 present graphs plotting the data from these 24-hour apoptosis assays for the different concentrations of compounds and no-drug control for the various cell lines. Channel FL2 picks up the apoptosis signal and channel FL3 picks up the necrosis signal. Data points in Quadrant 3 (Q3) in the graphs corresponds to cells undergoing apoptosis (cells positive for the apoptosis detection reagent of the assay). Data points in Quadrant 2 (Q2) in the graphs corresponds to cells that are positive for the apoptosis detection reagent and positive for the necrosis detection reagent of the assay (indicative of late-stage apoptosis).

PLC-PRF5 cells = assay: as above; assay type: cell-based, human; settings: 24 hours, SK1-I 10, 20, 40 μM, ozanimod 5, 10, 20 μM, ABC294640 10, 20, 40 μM
Description: as §1, §2, §3

Hep 3B cells = assay: as above; assay type: cell-based, human; settings: 24 hours, SK1-I 10, 20, 40 μM, ozanimod 10, 20, 40 μM, ABC294640 10, 20, 40 μM
Description: as §1
as §2, with “[…],” for “concentrations of test compound and control compound DMSO in media. • Ozanimod: 5 μM, 10 μM, and 20 μM. • ABC294640: 10 μM,”
as §3

Hep G2 cells = assay: as above; assay type: cell-based, human; settings: 24 hours, SK1-I 10, 20, 40 μM, ozanimod 10, 20, 40 μM, ABC294640 10, 20, 40 μM
Description: as §1
as §2, with “[…],” for “concentrations of test compound and control compound DMSO in media. • Ozanimod: 5 μM, 10 μM, and 20 μM. • ABC294640: 10 μM,”
as §3

[1] = tested on: Jurkat cells (human T-cell leukemia cell line); assay: Apoptosis assay; assay type: cell-based; settings: SK1-I 10, 20 μM, ozanimod 5, 10 μM
Description: as §2, §3

[2] = tested on: primary human hepatocytes; assay: Apoptosis assay on normal (non-cancerous) primary human hepatocytes; assay type: cell-based; settings: 24 hours; SK1-I 10, 20, 40 μM; ozanimod 2.5, 5, 10 μM; any concentration tested
Description: In still further experiments, the effects of SK1-I and ozanimod on normal (non-cancerous) primary human hepatocytes were investigated. Fresh human hepatocytes in a 12-well plate (HUF12) were obtained from Triangle Research Labs (Durham, NC, USA; part of Lonza Group) and handled according to the supplier's protocol. The shipping medium was aspirated from each well and replaced with 1 ml per well of warm Hepatocyte Maintenance Medium. The plate was then placed in a 5% CO2 incubator at 37° C. and the hepatocytes were allowed to acclimate overnight. The Hepatocyte Maintenance Medium was replaced before treatment with drug or no-drug control, and the hepatocytes were treated with 0 μM (no-drug control), 10 μM, 20 μM, or 40 μM SK1-I or 0 μM, 2.5 μM, 5 μM, or 10 μM ozanimod for 24 hours under incubation. The cells were then harvested and analyzed using the GFP Certified® Apoptosis/Necrosis detection kit. The results are shown in FIGS. 19A-D for SK1-I and FIGS. 20A-D for ozanimod as follows.

[3] = tested on: human hepatocellular carcinoma cell lines, Hep G2, Huh 7, and PLC-PRF5; assay: MTT cell viability assay (48 hours); assay type: cell-based; settings: Hep G2, Huh 7, PLC-PRF5
Description: The following MTT assay protocol was followed. • Prepared stock solutions: 50 mM ozanimod, 50 mM ABC294640, 10 mM SK1-I in DMSO. • Plated 20000 cells in 160 μl medium per well in 96-well plates for each cell line and incubated at 37° C. overnight. • Prepared compound serial dilutions: for ozanimod and ABC294640: dilute stock 50 mM 1:50 in medium to 1000 μM; for SK1-I, dilute stock 10 mM 1:50 in medium to […] them make serial 1:1.8 fold serial dilution to the titration. For negative control, diluted DMSO 1:50 to medium. • Added 40 μl negative control and serially titrated compounds to 160 μl of cells for each cell line. Performed in triplicate for each cell line. • Incubated at 37° C. for 72 hours. • Performed assay using Vybrant MTT Cell Proliferation Assay kit (V-13154) (Molecular Probes) from Thermo Fisher Scientific (Waltham, MA USA).
48-hour treatment MTT assays were also performed as follows.

Jurkat cells = assay: Cell viability effects (FIG. 21); assay type: cell-based, human; settings: Jurkat cells without IL-2; 5 μM of each agent

| SMILES | induction of apoptosis (Huh7 cells) | induction of apoptosis (PLC-PRF5 cells) | induction of apoptosis (Hep 3B cells) | induction of apoptosis (Hep G2 cells) | induction of apoptosis [1] | induction of apoptosis of primary human hepatocytes [2] | killing hepatocellular carcinoma cells, compared with PF-543 [3] | cell viability (Jurkat cells) |
| --- | --- | --- | --- | --- | --- | --- | --- | --- |
| O=C(NCc1ccncc1)C12CC3C[C@H](C1)CC(c1ccc(Cl)cc1)(C3)C2 [ABC294640, (7 S)-3-(4-chlorophenyl)-N-(pyridin-4-ylmethyl)adamantane-1-carboxamide] | failed to induce apoptosis | did not substantially induce apoptosis | did not substantially induce apoptosis | failed to induce apoptosis |  |  |  |  |
| CCCCCc1ccc(/C=C/[C@H](O)[C@@H](CO)NC)cc1 [SK1-I, (E,2R,3S)-2-(methylamino)-5-(4-pentylphenyl)pent-4-ene-1,3-diol] | strongly induced apoptosis | strongly induced apoptosis | strongly induced apoptosis | strongly induced apoptosis | strongly induced apoptosis | did not induce apoptosis | more effective at killing hepatocellular carcinoma cells than PF-543 |  |
| CC(C)Oc1ccc(-c2nc(-c3cccc4c3CC[C@@H]4NCCO)no2)cc1C#N [ozanimod, 5-[3-[(1S)-1-(2-hydroxyethylamino)-2,3-dihydro-1H-inden-4-yl]-1,2,4-oxadiazol-5-yl]-2-propan-2-yloxybenzonitrile] | strongly induced apoptosis | strongly induced apoptosis | strongly induced apoptosis | strongly induced apoptosis | strongly induced apoptosis | did not induce apoptosis |  | strongly decreases viability |
